# Test results from PubChem BioAssay (NCI).
#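 Values below derive from 48-hour exposures of cells grown in 96-well plates, with endpoints linearly interpolated between the two concentrations bracketing the appropriate inhibition level. GI50 is the concentration that inhibits growth by half. TGI is the concentration that stops growth completely.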
# Assays:
# Assay in all cases: NCI-60 cell line screen, 48 h
# A498 renal = system: A498 renal
# ACHN renal = system: ACHN renal
# COLO 205 colon = system: COLO 205 colon
# HOP-92 NSCLC = system: HOP-92 NSCLC
# MDA-MB-231 breast = system: MDA-MB-231 breast
# OVCAR-5 ovarian = system: OVCAR-5 ovarian
# SF-268 CNS = system: SF-268 CNS
# TK-10 renal = system: TK-10 renal
# MALME-3M melanoma = system: MALME-3M melanoma
# U251 CNS = system: U251 CNS
Compound,GI50 (A498 renal),TGI (A498 renal),GI50 (ACHN renal),TGI (ACHN renal),GI50 (COLO 205 colon),TGI (COLO 205 colon),GI50 (HOP-92 NSCLC),TGI (HOP-92 NSCLC),GI50 (MDA-MB-231 breast),TGI (MDA-MB-231 breast),GI50 (OVCAR-5 ovarian),TGI (OVCAR-5 ovarian),GI50 (SF-268 CNS),TGI (SF-268 CNS),GI50 (TK-10 renal),TGI (TK-10 renal),TGI (MALME-3M melanoma),TGI (U251 CNS),GI50 (MALME-3M melanoma),GI50 (U251 CNS)
C=C(CN1C(=O)CN(C)C1=O)c1ccc(C(=O)Nc2ccccc2N)cc1,4.3 µM,31.2 µM,20.9 µM,> 100 µM,9.24 µM,44.8 µM,26.5 µM,> 100 µM,36.3 µM,> 100 µM,3.56 µM,85.2 µM,11.5 µM,> 100 µM,3.44 µM,31.5 µM,–,–,–,–
CCc1ccccc1NC(=O)C1=C(C)NC(C)=C(C(=O)Nc2ccccc2CC)C1c1ccccc1Cl,–,> 100 µM,–,> 100 µM,–,> 100 µM,–,> 100 µM,–,–,–,> 100 µM,–,> 100 µM,–,> 100 µM,> 100 µM,> 100 µM,–,–
O=C1CC(O)CC(=O)C1=C(O)CCCCCCCCCCc1ccccc1 (stereo not given),–,–,–,> 100 µM,–,> 100 µM,–,> 100 µM,–,–,–,> 100 µM,–,> 100 µM,–,> 100 µM,–,> 100 µM,–,–
O=c1[nH]nnc2c1ncn2C1OC(CO)C(O)C1O (stereo not given),61.3 µM,> 100 µM,1.8 µM,> 100 µM,6.09 µM,> 100 µM,–,–,4.91 µM,76.9 µM,74.9 µM,> 100 µM,19.1 µM,> 100 µM,2.98 µM,> 100 µM,> 100 µM,> 100 µM,7.25 µM,41.5 µM
OC(Cc1ccncc1)C(Cl)(Cl)Cl (stereo not given),–,–,> 100 µM,> 100 µM,> 100 µM,> 100 µM,0.109 µM,> 100 µM,> 100 µM,> 100 µM,> 100 µM,> 100 µM,> 100 µM,> 100 µM,> 100 µM,> 100 µM,> 100 µM,> 100 µM,> 100 µM,> 100 µM
Cc1c2ccncc2c(C)c2c1[nH]c1ccc(OC(C)C)cc12,–,2.78 µM,–,2.56 µM,–,2.81 µM,–,3.22 µM,–,–,–,2.87 µM,–,3.07 µM,–,3.37 µM,3.16 µM,2.94 µM,–,–
CN(O)C(=O)SCC(NC(=O)CCC(N)C(=O)O)C(=O)NCC(=O)O (stereo not given),> 2000 µM,> 2000 µM,> 2000 µM,> 2000 µM,> 2000 µM,> 2000 µM,> 2000 µM,> 2000 µM,–,–,–,> 2 µM,> 2 µM,> 2000 µM,> 2000 µM,> 2000 µM,> 2000 µM,–,> 2000 µM,> 2000 µM
Cc1ccc(NCC(=O)N2CC(=O)Nc3ccccc32)c(C)c1,–,–,–,> 100 µM,–,> 100 µM,–,> 100 µM,–,–,–,> 100 µM,–,> 100 µM,–,> 100 µM,> 100 µM,> 100 µM,–,–
C=C1C(=O)O[C@@H]2C[C@@H](C)[C@@H]3C=CC(=O)[C@@]3(C)[C@@H](O)[C@H]12,–,3.52 µM,–,6.33 µM,–,5.11 µM,–,–,–,7.35 µM,–,3.37 µM,–,27.9 µM,–,11.8 µM,3.87 µM,2.99 µM,–,–
